Source: US20020092037A1, “Use of membrane supports in plant tissue culture processes” (priority 2000, published 2002)

Tests used:
[1] = test system: P. taeda embryogenic cell lines; assay: Embryo development and germination with abscisic acid applied in a liquid phase under polyester membranes; assay type: cell-based, Pinus taeda
[2] = test system: P. taeda embryogenic cell lines; assay: as above; assay type: cell-based, Pinus taeda; remark: listed apart in the source
Description: Loblolly pine embryogenic cell cultures were initiated, proliferated, cryopreserved, retrieved, further proliferated on gelled maintenance medium, and placed into liquid suspension for plating on embryo development medium MSG1 as described in Examples 3-4 above. Three replicate plates of each line were prepared for each of the following treatments:
Treatment B: the cells were plated onto polyester support membranes laid onto 1 ml liquid embryo development medium MSG1 containing PEG but lacking gelling agent and activated charcoal, pipetted over gelled embryo development medium MSG1
Treatment C: the cells were plated onto polyester support membranes laid onto 1 ml liquid embryo development medium MSG1 containing PEG but lacking gelling agent and activated charcoal, pipetted over gelled embryo development medium MSG1 lacking abscisic acid.
Embryos were developed, harvested and germinated as described in Example 4 above. The results of the counts of high quality cotyledonary stage embryos, and the germination tests with these embryos, are shown in Table 20 below.
In another experiment, an attempt had been made to decrease the osmotic potential of the liquid phase in order to facilitate filter sterilization.

[3] = test system: unknown fungus on Eucalyptus camaldulensis leaf explants; assay: Decontamination of Eucalyptus leaf explants of fungus; assay type: cell-based
From the text: Eucalyptus camaldulensis leaves were explanted from seedlings for the production of callus, and then discovered to be contaminated with an unknown fungus. Contaminated explants were shaken together to obtain the same degree of contamination for all explants to be used in this decontamination example. Contamination of each explant with the fungus was verified by streaking the explant on a potato dextrose agar plate, and observing independent growth of the fungus on the potato dextrose agar.
Approximately half the Eucalyptus leaf explants were then treated to decontamination by washing and collection of the tissue using polyester support membranes after each wash, similar to the improved decontamination method described in Example 6, split among five treatments:
Following the washing of half the material according to the protocol described in […] in the treatments described in the paragraph above, using three washes of 30 minutes each, the washed and non-washed material was then divided over the same support membrane treatments A-F as described in Example 8, except that nested within each support membrane treatment was the prior washing or lack of washing treatment, and within each of these latter treatments, the five fungicidal treatments listed above were further nested, wherein the antifungal agents benomyl, miconazole, nystatin or thiophanate were added to the medium subtending the tissue and supports in place of cefotaxime. Finally, non-contaminated explants were submitted to all treatments to determine the effects of the treatments on plant regeneration in the absence of fungus. Five explants were plated for each treatment combination.
The explants were then cultured in a growth chamber set at 27±3° C. and under low light, and were transferred biweekly using the same support membranes but supplying fresh sterile liquid and solid medium.

[4] = test system: P. taeda embryogenic cell lines; assay: Embryo development over eradicants in liquid phase of biphasic development and maturation media, P. taeda; assay type: cell-based, Pinus taeda; conditions: eradicant in liquid phase of development/maturation media, cefotaxime 500 mg/L, TIMENTIN 400 mg/L
From the text: Agrobacterium contamination has been reported as recurring sometimes after long periods of time. With many species, eradicants are incorporated in all culture media used after the initial infection, including selection media, proliferation media, media to induce the formation of organs or the development of somatic embryos, media to elongate or mature organs or embryos that are formed, and regeneration media. For pine embryogenic cells, incorporation of eradicants into the embryo development and maturation media has been difficult due to the high temperature of polymerization of the media resulting from the incorporation of a high level of polyethylene glycol. Therefore, loblolly and hybrid pine cell lines grown and maintained as described in Examples 3-4 above were placed on polyester support membranes over gelled MSG1 embryo development and maturation media as described in Example 4 above, except that some of the development and maturation media were overlaid with various eradication treatments under the polyester support membranes. The treatments consisted of either no liquid phase, or a liquid phase identical to the gelled phase (except that gelling agent and activated charcoal were omitted) and incorporating either cefotaxime or TIMENTIN® as an eradicant. Three replicate plates were generated from each of […] (two from each of two P. taeda families and one hybrid pine family) for each of the treatments, and assessed for the ability of the cultures to develop high quality harvestable stage 3 embryos. Dishes were incubated in a dark growth chamber at 23±2° C. The membrane supports were transferred to new petri dishes containing fresh medium every 3 weeks. At week 9, stage 3 embryos were counted and those deemed suitable for germination were harvested.

[5] = test system: Hybrid pine embryogenic cell lines; assay: Embryo development over eradicants in liquid phase of biphasic development and maturation media, hybrid pine; assay type: cell-based; conditions: eradicant in liquid phase of development/maturation media, cefotaxime 500 mg/L, TIMENTIN 400 mg/L
From the text: Agrobacterium contamination has been reported as recurring sometimes after long periods of time. With many species, eradicants are incorporated in all culture media used after the initial infection, including selection media, proliferation media, media to induce the formation of organs or the development of somatic embryos, media to elongate or mature organs or embryos that are formed, and regeneration media. For pine embryogenic cells, incorporation of eradicants into the embryo development and maturation media has been difficult due to the high temperature of polymerization of the media resulting from the incorporation of a high level of polyethylene glycol. […] Three replicate plates were generated from each of six embryogenic cell lines (two from each of two P. taeda families and one hybrid pine family) for each of the treatments, and assessed for the ability of the cultures to develop high quality harvestable stage 3 embryos. […] At week 9, stage 3 embryos were counted and those deemed suitable for germination were harvested.

[6] = test system: Hybrid pine embryogenic cell lines; assay: Growth of pine embryogenic cells on polyester supports over biphasic media with eradicants, hybrid pine; assay type: cell-based; conditions: liquid phase under polyester support, cefotaxime 500 mg/L, TIMENTIN 400 mg/L
[7] = test system: Hybrid pine embryogenic cell lines; assay: Embryogenicity after biphasic maintenance treatments, hybrid pine; assay type: cell-based; conditions: for % germination: embryos from cultures maintained over eradicant liquid phase; for Average Number Of Embryos Harvested Per Plate: eradicant in liquid phase during maintenance, cefotaxime 500 mg/L, TIMENTIN 400 mg/L
[8] = test system: P. taeda embryogenic cell lines; assay: Growth of pine embryogenic cells on polyester supports over biphasic media with eradicants, P. taeda; assay type: cell-based, Pinus taeda; conditions: liquid phase under polyester support, cefotaxime 500 mg/L, TIMENTIN 400 mg/L
From the text: (§1) Loblolly pine cell lines were used which had been grown and maintained as described in Examples 3-4 above, and purposely infected with bacteria as described in Example 6 above. Support membranes bearing plant tissue were then placed on gelled DCR2 maintenance media with various decontamination treatments. These treatments consisted of antibiotics (cefotaxime, carbenicillin, AUGMENTIN® or TIMENTIN®) as eradicants incorporated into the gelled DCR2 maintenance or selection media, the antibiotics incorporated into liquid DCR3 pipetted in a thin film over gelled DCR2 maintenance media lacking antibiotics, or the antibiotics incorporated into liquid DCR3 which was saturated into a filter paper laid on gelled DCR2 maintenance media lacking antibiotics. Support membranes bearing control cells were placed either on gelled DCR2 maintenance media, over liquid DCR3 pipetted in a thin film over gelled DCR2 maintenance media lacking antibiotics, or over a filter paper saturated with liquid DCR3 and laid on gelled DCR2 maintenance media lacking antibiotics. Decontamination and maintenance were continued for a period of approximately 12 weeks with transfer of the polyester support membranes, bearing the cells, every 14-21 days.

[9] = test system: P. taeda embryogenic cell lines; assay: Embryogenicity after biphasic maintenance treatments, P. taeda; assay type: cell-based, Pinus taeda; conditions: for % germination: embryos from cultures maintained over eradicant liquid phase; for Average Number Of Embryos Harvested Per Plate: eradicant in liquid phase during maintenance, cefotaxime 500 mg/L, TIMENTIN 400 mg/L
From the text: as §1

[10] = P1, liquid phase with same abscisic acid content as gelled phase
[11] = P1, gelled phase lacking abscisic acid and liquid phase containing abscisic acid
[12] = P2, gelled phase lacking abscisic acid and liquid phase containing abscisic acid
[13] = P2, liquid phase with same abscisic acid content as gelled phase

SMILES: CC1=CC(=O)CC(C)(C)[C@@]1(O)/C=C/C(C)=C\C(=O)O [Abscisic Acid, Abscisic acid]
- Average Number Of High Quality Cotyledonary Embryos Per Plate ([1]; L5, Liquid Phase containing ABA and PEG): 26.3 ± 45.6
- Average Number Of High Quality Cotyledonary Embryos Per Plate ([1]; L5, Liquid Phase containing ABA but no PEG): 201.0 ± 44.5
- Average Number Of High Quality Cotyledonary Embryos Per Plate ([1]; L9, Liquid Phase containing ABA and PEG): 64.0 ± 23.6
- Average Number Of High Quality Cotyledonary Embryos Per Plate ([1]; L9, Liquid Phase containing ABA but no PEG): 97.0 ± 20.7
- Average Number Of High Quality Cotyledonary Embryos Per Plate ([1]; L42, Liquid Phase containing ABA and PEG): 0
- Average Number Of High Quality Cotyledonary Embryos Per Plate ([1]; L42, Liquid Phase containing ABA but no PEG): 0
- Percentage Of Resulting Embryos That Germinated [1, 10]: 55.0%
- Average Number Of High Quality Cotyledonary Embryos Per Plate [2, 11]: 30.3 ± 7.1
- Percentage Of Resulting Embryos That Germinated [2, 11]: 52.5%
- Average Number Of High Quality Cotyledonary Embryos Per Plate [2, 10]: 44.3 ± 21.1
- Average Number Of High Quality Cotyledonary Embryos Per Plate [2, 12]: 48.7 ± 5.0
- Percentage Of Resulting Embryos That Germinated [2, 12]: 57.5%
- Average Number Of High Quality Cotyledonary Embryos Per Plate [2, 13]: 44.3 ± 4.9
- Percentage Of Resulting Embryos That Germinated [2, 13]: 67.5%
- decrease in embryos per plate ([2]; abscisic acid in liquid phase only, overall use of 5% of the amount): 30-60%

SMILES: CCCCNC(=O)n1c(NC(=O)OC)nc2ccccc21 [benomyl, Benomyl]
- phenolic release into the medium from plant tissue ([3]; also from successfully decontaminated plant tissue): elicited considerable phenolic release into the medium
- decontamination ([3]; in the washing (100 mg/L) and incorporated into the medium below the polyester supports): largely ineffective in decontamination

SMILES: CO/N=C(\C(=O)N[C@@H]1C(=O)N2C(C(=O)O)=C(COC(C)=O)CS[C@H]12)c1csc(N)n1 [cefotaxime]
- Number of Harvestable Cotyledonary Stage Embryos Developed ([4]; P1): 208.0 ± 94.8
- Number of Harvestable Cotyledonary Stage Embryos Developed ([4]; P2): 269.0 ± 23.3
- Number of Harvestable Cotyledonary Stage Embryos Developed ([4]; P3): 25.0 ± 17.7
- Number of Harvestable Cotyledonary Stage Embryos Developed ([4]; P4): 18.0 ± 1.0
- Number of Harvestable Cotyledonary Stage Embryos Developed ([5]; H1): 200.0 ± 51.2
- Number of Harvestable Cotyledonary Stage Embryos Developed ([5]; H2): 210.0 ± 67.1
- Average growth over a one-month period (two transfers) ([6]; H1): 4.53 + 0.28
- Average growth over a one-month period (two transfers) ([6]; H2): 8.76 + 0.63
- % germination ([7]; H1): (96%)
- Average Number Of Embryos Harvested Per Plate ([7]; H1): 152.0 ± 40.8
- % germination ([7]; H2): (88%)
- Average Number Of Embryos Harvested Per Plate ([7]; H2): 77.0 ± 10.4
- Average growth over a one-month period (two transfers) ([8]; P1): 7.20 + 0.28
- Average growth over a one-month period (two transfers) ([8]; P2): 1.93 + 0.24
- Average growth over a one-month period (two transfers) ([8]; P3): 6.75 + 0.25
- Average growth over a one-month period (two transfers) ([8]; P4): 8.97 + 0.19
- % germination ([9]; P1): (10%)
- Average Number Of Embryos Harvested Per Plate ([9]; P1): 87.0 ± 37.5
- % germination ([9]; P2): (66%)
- Average Number Of Embryos Harvested Per Plate ([9]; P2): 81.7 ± 44.5
- % germination ([9]; P3): (21%)
- Average Number Of Embryos Harvested Per Plate ([9]; P3): 14.3 ± 4.2
- % germination ([9]; P4): (36%)
- Average Number Of Embryos Harvested Per Plate ([9]; P4): 34.0 ± 16.1

SMILES: Clc1ccc(COC(Cn2ccnc2)c2ccc(Cl)cc2Cl)c(Cl)c1 (stereo not shown) [miconazole, Miconazole]
- contaminated explants in which decontamination did not succeed ([3]; contaminated Eucalyptus explants): 7.5%
- decontamination rate ([3]; contaminated Eucalyptus explants, 50 mg/L in wash medium): 92.5%
